Experimental data reported in US9096544B2, “Therapeutic compounds” (Wayne State University, priority 2009, dated 2015).

Tests used:
[1] = system: TF(v-SRC) cells; assay: Test B: apoptosis of TF(v-SRC) cells (acridine orange/ethidium bromide, nuclear fragmentation); format: cell-based; details: nuclear fragmentation, FIG. 2A/B (96 h), read-out: ED50 of apoptosis induction
Procedure: FIG. 2 illustrates apoptosis induction in FFMA-AML and TF(v-SRC) cells by 3-Cl-AHPC and compound 16. Cells were seeded at 1×10^4 cells/ml, grown for 24 h and then exposed to 1 μM compound 16 or 3-Cl-AHPC A) at various concentrations of the compound for 96 h and B) for increasing times of exposure. C) Induction of apoptosis by 3-Cl-AHPC, all-trans-retinoic acid, 9-cis-retinoic acid and TTNPB in FFMA-AML and TF(v-SRC) cells. The percentage of apoptotic cells was determined using acridine orange and ethidium bromide staining to determine nuclear fragmentation as described in the general biochemical and pharmacological materials and methods. The error bars represent the mean of three separate determinations +/− the standard deviation (SD).
FFMA-AML cells were obtained from a patient with a diagnosis of AML as indicated by the immunophenotyping described in Table 1. This patient was refractory to the chemotherapy regimens consisting of cytosine arabinoside given with daunomycin as well as high-dose cytosine arabinoside. Peripheral blood samples were obtained from the patient utilizing a Wayne State University Institutional Review Board approved protocol and the leukemic blasts were isolated utilizing Ficoll hypaque. The isolated leukemic cells (representing >99% of the cells) were subsequently cultured in RPMI 1640 supplemented with 10% heat-inactivated fetal bovine serum (FBS) and growth factors interleukin 3 (IL-3), granulocyte-colony stimulating factor (G-CSF), granulocyte/macrophage colony-stimulating factor (GM-CSF), and stem cell factor (SCF) as we have previously reported, and then the cells were maintained in 10% FBS and gentamycin (Zhang Y. et al., Blood, 2003; […]:3743-3752). The TF(v-SRC) leukemia cells have been previously described (Black J. H. et al., Leukemia. 2003; 17:155-159). TF(v-SRC) cells were grown in RPMI 1640 supplemented with 10% heat inactivated FBS.
Apoptosis of cells was determined by (1) acridine orange and ethidium bromide-staining to assess cells with nuclear fragmentation and chromatin condensation as previously described (Farhana L. et al., Cancer Res. 2006; 65:4909-4917) and (2) flow cytometry assessing Annexin V-FITC binding together with propidium iodide staining (Annexin V-FITC apoptosis Detection kit 1, BD Biosciences, San Diego, Calif.). Data acquisition was done on a FACS Calibur flow cytometer (BD) and analyzed with CellQuest software.
Cells were grown in the presence and absence of increasing concentrations of either 3-Cl-AHPC or compound 16 and for varying periods of time. There was a progressive increase in 3-Cl-AHPC- and compound 16-mediated apoptosis in both FFMA-AML and TF(v-SRC) cells with time and with increasing concentrations of the compounds. […] We therefore tested the sensitivity of FFMA-AML and TF(v-SRC) cells to apoptosis induction by tRA, 9-cis RA, and TTNPB (FIG. 2C).

[2] = system: poly(ADP-ribose)polymerase (PARP); assay: Test C: PARP cleavage; format: cell-based; details: FFMA-AML and TF(v-SRC) cells
Source text: FIG. 5 illustrates compound 16-mediated inhibition of XIAP, c-IAP1, and phospho-Bad expression in FFMA-AML and TF(v-SRC) cells accompanied by the induction of PARP cleavage. A) XIAP, c-IAP and phospho-Bad protein expression following exposure to compound 16 assessed by Western blot. B)-D) Protein expression levels quantified using laser densitometry. The expression levels of XIAP, c-IAP1 and phospho-Bad were normalized to the respective α-tubulin level and compared to their relative levels in the controls, which were given an arbitrary value of 1.
The proteins c-IAP1, c-IAP2, and XIAP bind caspases resulting in inhibition of caspase activity (Jin H-S. et al., Cancer Res. 2009; 69:[…]). […] The Bcl-2 family member Bad enhances apoptosis and is inactivated through phosphorylation to phosphorylated Bad (Eisenmann K. M. et al., Cancer Res. 2003; 63:8330-8337). To assess modulation of anti-apoptotic protein expression during the induction of apoptosis in the AML cells by compound 16, the expression of XIAP, c-IAP1 and phospho-Bad as well as cleavage of the DNA-damage repair poly(ADP-ribose)polymerase (PARP) was assessed following exposure of the AML cells to compound 16.

Row | SMILES | EC50 [1] | cleavage of PARP [2]
1 | O=C(O)C=Cc1ccc(-c2ccc(O)c(C34CC5CC(CC(C5)C3)C4)c2)c(Cl)c1 [Compound 3-Cl-AHPC, 4-[3-(1-adamantyl)-4-hydroxyphenyl]-3-chlorocinnamic acid, reference compound] | 750 nM | 
2 | O=C(O)/C=C/c1cnc(-c2ccc(O)c(C34CC5CC(CC(C5)C3)C4)c2)nc1 [Compound 16, (E)-3-[2-(3-(1-Adamantyl)-4-hydroxyphenyl)-5-pyrimidinyl]-2-propenoic acid] | 750 nM | cleavage of PARP was noted
